According to US20230053688A1, “METHODS TO ALTER LATENCY IN EBV+ MALIGNANCIES” (Cornell University, priority 2020, published 2023):
Like-named read-outs stand apart in the source and are kept apart here.

Legend:
[1] = tested on: LMP1 and EBNA3C proteins in BL cells; experiment: Immunoblot for viral proteins in BL cells; type: cell-based, EBV; details: 48 hours
Procedure: Immunoblot was performed with the standard procedure using the following antibodies: β-actin (GeneTex), BZLF1 (Santa Cruz), EBNA1 (Santa Cruz), EBNA2 (AbCam), EBNA3C (gift from Benjamin Gewurz), GAPDH (GeneTex), and LMP1 (AbCam).
Since decitabine and 5-azacytadine were the top hits on the epigenetic screen, the effect of these agents on latency II/III transcript and protein expression was investigated as well as the dose-response in a panel of BL cell lines. BL cells were treated with decitabine or 5-azacytidine over a range of doses. Viral antigen expression was evaluated by qRT-PCR, immunoblot, and immunohistochemistry. […] This was associated with upregulation of LMP1 and EBNA3C proteins (FIG. 2B).

[2] = tested on: EBNA2 and LMP1 in Mutu I, Kem I, and Rael cells; experiment: Immunohistochemistry on cell blocks, statement across the three cell lines; type: cell-based, EBV; details: 5-Aza at 4 uM, 48 hours, compared with decitabine
Procedure: Cell blocks were generated from cell lines in suspension by fixation in 10% formalin. Immunohistochemistry on cell blocks and mouse tumors was performed with the following antibodies: EBNA2 (abcam #ab90543), LMP1 (Dako #M0897), BZLF1 (Santa Cruz #SC-53904), CD8 (Leica #PA0183), PD-1 (Dako #M3653), PD-L1 (Cell Marque #315M-98). The Halo® image analysis software program (Indica Labs) was used to quantify immunohistochemical stains.
Next it was determined the percentage of cells that convert to expressing latency […] antigens after treatment with decitabine or 5-azacytadine. To do this, EBV antigen expression at the single-cell level was evaluated by immunohistochemistry (IHC) from cell blocks. Cells were treated with 5-azacytidine, decitabine, or vehicle control. Cell blocks were then evaluated by IHC for LMP1 and EBNA2. The percentage of positive cells was quantified with HALO image analysis. […] 5-azacytidine induced a more modest expression of EBNA2 and LMP1 across the three cell lines (FIGS. 2E-F). Based on these observations, decitabine was further investigated as a potential agent to induce expression of immunogenic viral antigens in latency I tumors.

Mutu I = experiment: Cell viability, CellTiter-Glo; details: read-out: 48 Hour IC50
Procedure: (§1) Cell viability was determined using CellTiter-Glo (Promega) and the GloMax® Multi+ detection system (Promega).
(§2) Cell viability was determined using an ATP based luminescent assay (CellTiter-Glo, Promega) and the GloMax® Multi+ detection system (Promega). IC50 values were calculated using Prism 6 software.
(§3) To determine if induction of LMP1 and EBNA3 were linked to hypomethylating agent-induced cell death, cells were exposed to decitabine or 5-azacytadine over a range of doses and cell viability evaluated with the ATP-based Cell Titer-Glo® assay.

Kem I = experiment: Cell viability, CellTiter-Glo; details: 48 h, read-out: 48 Hour IC50
Procedure: as §1, §2, §3

Rael = experiment: Cell viability, CellTiter-Glo; details: read-out: 48 Hour IC50
Procedure: as §1, §2, §3

[3] = tested on: LMP1 and Cp transcripts in Kem I, Mutu I, and Rael cell lines; type: cell-based, EBV
[4] = tested on: LMP1 expression in Kem I cells; experiment: microbe, parasite or virus in culture; type: cell-based, EBV; details: for fold induction at 1 µM / fold induction at 2.5 µM: human gammaherpesvirus 4, 48 h
BL cells = experiment: Cell viability, CellTiter-Glo, statements for the BL cell panel
Procedure: as §1, §2, §3

[5] = Kem I cells, dose 2.5 uM, 48 hours, LMP1 transcript by in-well qRT-PCR, average of the two replicates
[6] = Kem I cells, dose 2.5 uM, 48 hours, LMP1 transcript by in-well qRT-PCR, screen replicate 1
[7] = Kem I cells, dose 2.5 uM, 48 hours, LMP1 transcript by in-well qRT-PCR, screen replicate 2
[8] = read-out: Average LMP1 Fold Increase, Kem I cells, dose 2.5 uM, 48 hours, LMP1 transcript by in-well qRT-PCR, average of the two replicates
[9] = read-out: Replicate 1-LMP1 Fold Increase, Kem I cells, dose 2.5 uM, 48 hours, LMP1 transcript by in-well qRT-PCR, screen replicate 1
[10] = read-out: Replicate 2-LMP1 Fold Increase, Kem I cells, dose 2.5 uM, 48 hours, LMP1 transcript by in-well qRT-PCR, screen replicate 2
[11] = Kem I cells, 2.5 uM, 48 hours, average of replicates 1 and 2
[12] = Kem I cells, 2.5 uM, 48 hours, fold change in LMP1 transcript vs vehicle

| Compound | Average LMP1 Fold Increase [4, 5] [fold] | Replicate 1-LMP1 Fold Increase [4, 6] [fold] | Replicate 2-LMP1 Fold Increase [4, 7] [fold] | Average LMP1 Fold Increase [4, 11] | Replicate 1-LMP1 Fold Increase [4, 12] | Replicate 2-LMP1 Fold Increase [4, 12] | further results |
| --- | --- | --- | --- | --- | --- | --- | --- |
| Nc1ncn([C@@H]2O[C@H](CO)[C@@H](O)[C@H]2O)c(=O)n1 [5-azacytidine] |  |  |  |  |  |  | LMP1 and EBNA3C proteins (immunoblot) [1]: not associated with significant induction; expression of EBNA2 and LMP1 (IHC) [2]: more modest; IC50 (Mutu I): 4 µM; IC50 (Kem I): > 5 µM; IC50 (Rael): 2.2 µM; optimal dose for induction ([3]; BL cells): 1 to 4 µM; induction of LMP1 and Cp ([3]; at doses <1 μM, 48 hours): minimal; fold induction at 1 µM ([4]; read-out: Average LMP1 Fold Increase, Kem I cells, 1 uM, 48 hours, average of replicates 1 and 2): 4.1; fold induction at 1 µM ([4]; read-out: Replicate 1-LMP1 Fold Increase, Kem I cells, 1 uM, 48 hours, fold change in LMP1 transcript vs vehicle): 5.77; fold induction at 1 µM ([4]; read-out: Replicate 2-LMP1 Fold Increase, Kem I cells, 1 uM, 48 hours, fold change in LMP1 transcript vs vehicle): 2.43; IC50 (BL cells): ≥ 2.2 µM; change in cell viability (BL cells; at the optimal dose for induction): minimal change |
| CCC(=O)Nc1cccc(Oc2nc(Nc3ccc(N4CCN(C)CC4)cc3OC)ncc2Cl)c1 [WZ4003] | 0.72 | 0.79 | 0.64 |  |  |  |  |
| Cc1cc(-c2ccc(CC(=O)Nc3ccc(-c4cccnc4)cc3)cc2)ccn1 [Wnt-C59 (C59)] | 0.98 | 0.60 | 1.35 |  |  |  |  |
| Oc1nc(-c2ccc(C(F)(F)F)cc2)nc2c1CSCC2 [XAV-939] |  |  |  |  |  |  | fold induction at 2.5 µM [4, 8]: 0.73; fold induction at 2.5 µM [4, 9]: 0.73; fold induction at 2.5 µM [4, 10]: 0.73 |
| CC(C)OC(=O)C1=CN(C(=O)c2ccc(F)c(F)c2)CC(C)(C)c2c1[nH]c1ccccc21 [XL335] |  |  |  |  |  |  | fold induction at 2.5 µM [4, 8]: 0.27; fold induction at 2.5 µM [4, 9]: 0.39; fold induction at 2.5 µM [4, 10]: 0.14 |
| COCC[n+]1c2c(n(Cc3cnccn3)c1C)C(=O)c1ccccc1C2=O.[Br-] [YM155 (Sepantronium Bromide)] | 0.00 | 0.00 | 0.00 |  |  |  |  |
| C[C@H](NC(=O)Cc1cc(F)cc(F)c1)C(=O)N[C@@H]1C(=O)N(C)c2ccccc2-c2ccccc21 [YO-01027] | 0.35 | 0.44 | 0.27 |  |  |  |  |
| Cc1cc(C)nc(NS(=O)(=O)c2ccc(NC(=S)NC(=O)COc3ccc(Br)cc3Cl)cc2)n1 [ZCL278] | 0.85 | 1.26 | 0.44 |  |  |  |  |
| COc1cc2ncnc(Nc3ccc(Cl)cc3F)c2cc1OC [ZM 306416] | 0.85 | 0.70 | 1.00 |  |  |  |  |
| COc1cc2c(Nc3ccc(NC(=O)c4ccccc4)cc3)ncnc2cc1OCCCN1CCOCC1 [ZM 447439] | 0.37 | 0.34 | 0.40 |  |  |  |  |
| O=c1ncccn1[C@@H]1O[C@H](CO)[C@@H](O)[C@H]1O [Zebularine] |  |  |  |  |  |  | fold induction at 2.5 µM [4, 8]: 0.52; fold induction at 2.5 µM [4, 9]: 0.24; fold induction at 2.5 µM [4, 10]: 0.79 |
| COc1nc(C)cnc1NS(=O)(=O)c1cccnc1-c1ccc(-c2nnco2)cc1 [Zibotentan (ZD4054)] | 0.77 | 0.57 | 0.97 |  |  |  |  |
| Cl.Cl.Cl.O[C@@H](COc1cccc2ncccc12)CN1CCN([C@@H]2c3ccccc3[C@@H]3[C@H](c4ccccc42)C3(F)F)CC1 [Zosuquidar (LY335979) 3HCl] | 0.79 | 0.64 | 0.94 |  |  |  |  |
| (−)-MK 801 Maleate |  |  |  | 0.88 | 0.94 | 0.81 |  |
| BAM7 |  |  |  | 0.93 | 0.51 | 1.35 |  |
| CHIR-98014 |  |  |  |  |  |  | Average LMP1 Fold Increase [4]: 0.67; Replicate 1-LMP1 Fold Increase [4]: 0.81; Replicate 2-LMP1 Fold Increase [4]: 0.54 |
| HA14-1 |  |  |  | 0.73 | 0.62 | 0.83 |  |
| I-BET151 (GSK1210151A) |  |  |  | 1.39 | 1.41 | 1.38 |  |
| Ifenprodil Tartrate |  |  |  | 0.96 | 0.58 | 1.35 |  |
| KX2-391 |  |  |  | 1.63 | 2.01 | 1.25 |  |
| Maraviroc |  |  |  | 1.08 | 0.44 | 1.72 |  |
| OG-L002 |  |  |  | 1.15 | 1.03 | 1.27 |  |
| Pifithrin-μ |  |  |  | 0.78 | 0.40 | 1.17 |  |
| S3I-201 |  |  |  | 0.65 | 0.63 | 0.67 |  |
| SN-38 |  |  |  | 1.10 | 0.95 | 1.26 |  |
| SNS-314 Mesylate |  |  |  | 0.51 | 0.71 | 0.32 |  |
| VU 0357121 | 0.48 | 0.51 | 0.46 |  |  |  |  |
| VU 0364439 | 0.90 | 1.34 | 0.45 |  |  |  |  |
| VU 0364770 | 1.03 | 0.51 | 1.55 |  |  |  |  |
